Measured values from patent US20140378395A1, “Peptides for the Treatment of Hearing” (13Therapeutics, Inc., priority 2011, published 2014).

System: TNF-α production in RAW264.7 cells
Type: cell-based, murine
Conditions: 30 μg/mL, 15 minutes pre-incubation, 4 hours

Sequence: EEYFMYRGLLGLRIKYG [Peptide P7]
- NCE-stimulated TNF-α production compared to control peptide: significantly inhibited
